Several values for one entry are separate records, joined by “and”; a condition that tells them apart may be missing. Equal entries are not always repeated.

The test system of data set [1] is adjuvant arthritis induced in rats. Nature of the data set: adjuvant arthritis analgesic bioassay (tail pinch / foot bend squeak response). It counts as in vivo, Sprague-Dawley rats. An excerpt:
Since analgesic tests using intact animals are not sensitive enough to detect the analgesic activity of nonsteroidal anti-inflammatory compounds, the analgesic bioassay employed utilized inflammatory sensitization procedures, specifically adjuvant arthritis. Adjuvant arthritis induced in rats, the animals used in the bioassay, resembles rheumatoid arthritis in man with respect to the manifestation of inflammation and hyperalgesia. When the affected joints of rats with adjuvant arthritis are subjected to a gentle manipulation, preferably by extending the joint, the rats respond by squeaking, which is a definite and reproducible sign of algesia. The ability of the tested compounds to suppress this squeaking response was an accurate measure of the analgesic activity of the tested compounds.
In accordance with the adjuvant arthritis bioassay used to evaluate the analgesic activity of the combinations of compounds of the present invention, young adult Sprague-Dawley rats of either sex are rendered hyperalgesic by injection of dessicated Mycobacterium- butyricum suspended in light mineral oil (Freund's adjuvant). The mycobacteria are ground in a mortar, suspended in the oil, and sterilized in an autoclave. Each animal receives 0.5 mg of the bacteria in 0.1 ml of oil, injected subcutaneously through a 21-gauge needle into the distal third of the tail.
The animals can subsequently be used in two ways for testing the analgesic action of drugs. The day after the injection of adjuvant, the tail is found to be sensitive to touch. Approximately 16 hours after the injection, the experimenter tests the animals for the presence of hyperalgesia. This is done by holding the animal in one hand. With the thumb and forefinger of the other hand, the observer applies gentle pressure to the tail about 2.5 cm proximal to the point where the needle has been inserted. This gentle pressure is repeated at 5-sec intervals. If the rat endures five such gentle presses without emitting more than one "squeak", analgesia is considered to be present and a score of + is assigned. Two or more squeaks earns a rating of 0, or no analgesia. Before being assigned to an experiment, animals are screened and only those with the 0 rating are used.
The hyperalgesic animals are assigned randomly to drug treatments and one of the treatments is always the vehicle without the drug (placebo group). […] […] This entire procedure may be referred to as "tail pinch" .technique. Alternatively, an apparatus for applying pressure to the tail may be employed and the "squeak threshold" determined before and after drug.
The adjuvant-injected animals, if left undisturbed, develop severe arthritis which becomes especially manifest in about two weeks. […] This "foot bend" technique yields drug responses essentially identical with those obtained by the "tail pinch" procedure.
For a further description of this bioassay and its significance, reference is made to Kuzuma and Kawai, "Evaluation of Analgesic Agents in Rats with Adjuvant Arthritis", Chem. Pharm. Bull., 23 (6) 1184-1191 (1975).

A further data set can be described thus: in vivo. It counts as in vivo, mice. As to conditions: mouse, in vivo, po. The procedure: (§1) Measurements of the relative safety of the components and of the combination were carried out using acute oral toxicity studies in female mice. Randomly selected female albino mice (Carworth CF-1) weighing from 18 to 24 grams, and 6 to 7 weeks old, were used. The LD50 value for each drug was estimated from acute oral dose-response curves previously established. The following dose regimen was utilized:
(§2) The preparations were administered by gastric intubation using a metal catheter attached to a springe. The various doses were administered randomly with 20 mice per group. Food was withheld one to two hours before and three hours following drug treatment. Water was available at all times. […] Body weights were taken pretest and on days 7 and 14.

Data set [2] concerns female albino mice (Carworth CF-1). Nature of the data set: in vivo. To be noted: Group V: Acetaminophen 1500 mg./kg. (100 %LD50) alone; oral; 20 tested; 14 days. It counts as in vivo. As for the experimental part:
as §1, §2

The test system of data set [3] is adjuvant arthritis induced in rats. To be noted: compounds known to be clinically active; cited from earlier work.

A word on the LD50: it is the dose at which mortality reaches 50%. As for `CC(=O)Nc1ccc(O)cc1` [APAP, acetaminophen], the “Number of Rats with Analgesia” value in data set [1] (1/2 h after administration, dose 200 mg./kg., 8 rats per dose) is 2; in data set [1] (1 h after administration, dose 25 mg./kg., 10 rats per dose) it was 1; in data set [1] (1 h after administration, dose 50 mg./kg., 10 rats per dose) it was 1; in data set [1] (1 h after administration, dose 100 mg./kg., 10 rats per dose), 3; in data set [1] (1 h after administration, dose 200 mg./kg., 8 rats per dose) it was 2 and 3; in data set [1] (1 h after administration, dose 400 mg./kg., 8 rats per dose) it was 6 and 4. Moreover, the “Number of Rats with Analgesia” value in data set [1] (2 h after administration, dose 25 mg./kg., 10 rats per dose) was 0; in data set [1] (2 h after administration, dose 50 mg./kg., 10 rats per dose), 0; in data set [1] (2 h after administration, dose 100 mg./kg., 8 rats per dose), 1; in data set [1] (2 h after administration, dose 100 mg./kg., 10 rats per dose), 2; in data set [1] (2 h after administration, dose 200 mg./kg., 8 rats per dose), 4 and 3; in data set [1] (2 h after administration, dose 400 mg./kg., 8 rats per dose), 7. Moreover, the “Number of Rats with Analgesia” value in data set [1] (3 h after administration, dose 25 mg./kg., 10 rats per dose) stood at 0; in data set [1] (3 h after administration, dose 50 mg./kg., 10 rats per dose), 0; in data set [1] (3 h after administration, dose 100 mg./kg., 10 rats per dose), 0; in data set [1] (3 h after administration, dose 200 mg./kg., 8 rats per dose) it was 4; in data set [1] (3 h after administration, dose 400 mg./kg., 8 rats per dose), 6; in data set [1] (4 h after administration, dose 25 mg./kg., 10 rats per dose), 0. In addition, the “Number of Rats with Analgesia” value in data set [1] (4 h after administration, dose 50 mg./kg., 10 rats per dose) is 0; in data set [1] (4 h after administration, dose 100 mg./kg., 8 rats per dose), 0; in data set [1] (4 h after administration, dose 100 mg./kg., 10 rats per dose) it was 0; in data set [1] (4 h after administration, dose 200 mg./kg., 8 rats per dose), 4; in data set [1] (4 h after administration, dose 400 mg./kg., 8 rats per dose) it was 5 and 4; in data set [1] (5 h after administration, dose 25 mg./kg., 10 rats per dose), 0. The “Number of Rats with Analgesia” value in data set [1] (5 h after administration, dose 50 mg./kg., 10 rats per dose) was 0; in data set [1] (5 h after administration, dose 100 mg./kg., 8 rats per dose), 0; in data set [1] (5 h after administration, dose 100 mg./kg., 10 rats per dose) it was 0; in data set [1] (5 h after administration, dose 200 mg./kg., 8 rats per dose), 2 and 1; in data set [1] (5 h after administration, dose 400 mg./kg., 8 rats per dose), 2 and 3; in data set [1] (6 h after administration, dose 25 mg./kg., 10 rats per dose), 0. The “Number of Rats with Analgesia” value in data set [1] (6 h after administration, dose 50 mg./kg., 10 rats per dose) is recorded as 0; in data set [1] (6 h after administration, dose 100 mg./kg., 8 rats per dose), 0; in data set [1] (6 h after administration, dose 100 mg./kg., 10 rats per dose) it was 0; in data set [1] (6 h after administration, dose 400 mg./kg., 8 rats per dose), 1. The “Percent of Rats with Analgesia APAP Alone” value is 10% in data set [1] (1 Hrs. after drug, APAP 25 mg./kg., 10 rats per dose); 25% and 37.5% in data set [1] (1 Hrs. after drug, APAP 200 mg./kg., 8 rats per dose); 0% in data set [1] (2 Hrs. after drug, APAP 50 mg./kg., 10 rats per dose); 0% in data set [1] (3 Hrs. after drug, APAP 100 mg./kg., 8 rats per dose); 0% in data set [1] (3 Hrs. after drug, APAP 100 mg./kg., 10 rats per dose); 0% in data set [1] (4 Hrs. after drug, APAP 25 mg./kg., 10 rats per dose). Besides, the “Percent of Rats with Analgesia APAP Alone” value came out at 0% in data set [1] (4 Hrs. after drug, APAP 50 mg./kg., 10 rats per dose); 0% in data set [1] (4 Hrs. after drug, APAP 100 mg./kg., 8 rats per dose); 0% in data set [1] (4 Hrs. after drug, APAP 100 mg./kg., 10 rats per dose); 0% in data set [1] (5 Hrs. after drug, APAP 100 mg./kg., 8 rats per dose); 25% in data set [1] (5 Hrs. after drug, APAP 200 mg./kg., 8 rats per dose). Further, the “Total Positives” value in data set [1] (sum over 1/2, 1 and 2 h, dose 200 mg./kg., 8 rats per dose) is 7; in data set [1] (sum over 1 and 2 h, dose 100 mg./kg., 10 rats per dose), 5. The LD50 in “in vivo” came to 1500 mg/kg. Further, the “No. Dead” value in data set [2] was 16.

Regarding `CC(=O)Oc1ccccc1C(=O)O` [aspirin], the “results in the adjuvant arthritis analgesic bioassay” value (shortened to “results”) in data set [3] was “positive, dose-dependent, reproducible results”.

Take `CC(C)Cc1ccc(CC(=O)O)cc1` [ibufenac]: the “results” value in data set [3] was “positive, dose-dependent, reproducible results”.

For the molecule `COc1ccc2c(c1)c(CC(=O)O)c(C)n2C(=O)c1ccc(Cl)cc1` [indomethacin], the “results” value in data set [3] was “positive, dose-dependent, reproducible results”.

The values are drawn from EP0017102A1, “Composition containing a phenyl benzoic acid compound and acetaminophen combination for the treatment of pain and inflammation and process for preparing the same” (Merck & Co., Inc., priority 1979, dated 1980).
